Experimental data from US20240082260A1, “INHIBITOR OF PROTEIN KINASE D FOR USE IN PREVENTION OR TREATMENT OF HYPERLIPIDEMIA” (priority 2021, published 2024).

Assays:
Caco2 cells = assay: Lipid transport (14C-fatty acid release) through Caco2 monolayer in transwell system; format: cell-based, human; conditions: 20 μM, 24 h, vs DMSO; FIG. 8
Method: Lipid transport studies were assessed in Caco2 cells seeded in trans-wells. 1.5×10^5 cells were seeded into a 12-well cell culture insert of 1 μm pore size Trans-well and maintained in for 14 consecutive days with media change every two days. For the lipids uptake and release, the apical side of the membrane was loaded with radioactive ^14C-palmitic acid (0.2 μCi), oleic acid (1 mM), and taurocholic acid (2 mM) in DMEM high glucose 10% FBS. The basal medium contained DMEM high glucose 0.1% FBS. After 24 hours of incubation, cell lysates and the apical and basolateral medium was collected and the ^14C-palmitic acid was measured in a scintillation counter for aliquots of apical and basal medium and for cell lysate. The same protocol was used in Caco2 cells that were treated with CRT0066101 (3 and 5 μM) for 24 h (added together with the mentioned radioactive fatty acid cocktail).
In order to test the potential of PKD inhibitors to restrict lipid transport via epithelial monolayer, we employed Caco2 cells seeded into the Transwells system. Briefly, we plated 1.5×10^5 cells seeded into a 12-well cell culture inserts of 1-μm pore size Transwell and maintained in for 14 consecutive days with media change every 2 days. For the lipid uptake and release, the apical side of the membrane was loaded with radioactive 14C-palmitic acid (0.2 μCi), oleic acid (1 mM), and taurocholic acid (2 mM) in DMEM high glucose 10% FBS. The basal medium contained DMEM high glucose 0.1% FBS. After 24 h of incubation, cell lysates and the apical and basolateral medium were collected and the 14C-palmitic acid was measured in a scintillation counter for aliquots of apical and basal medium and for cell lysate. To assess the efficiency of different PKD inhibitors, Caco2 cells were treated with either CRT0066101 (5 μM), CID2011756 (20 μM), CID755673 (20 μM), 1-NM-PP1 (20 μM), or control solvent solution (DMSO) for 24 h (added together with the mentioned radioactive FA cocktail).

LDLR-deficient mice = conditions: cited from earlier work
male C57BL/6 mice on HFD = assay: Oral PKD inhibitor in HFD-fed C57BL/6 mice (diet-induced obesity and diabetes); format: in vivo, mouse; conditions: oral administration, mice; also said to prevent hyperlipidemia and diabetes and improve microflora
Method: Mice body weight development was closely monitored and reported here on a weekly basis when mice were on a specified diet. All experiments were performed in male mice.
PKD inhibitor CRT0066101 was dissolved in water (10 mg/kg) and administered orally to the mice by daily gavage, while the control mice were gavaged with water. Mice were maintained on the specified diets and had ab libitum access to food and water. C57BL/6 mice were administered CRT inhibitor treatment at 4-weeks of age, while for the rescue experiment, inhibitor was given under the same circumstances but treatment started only after 7 weeks of HFD feeding. Intestinal barrier permeability was further assessed 1 hour after oral gavage of FITC-Dextran 4.
Energy expenditure, food intake, and activity measurements were obtained in a PhenoMaster (TSE Systems) as previously described (El-Merahbi, Viera et al., 2020, Trujillo Viera, El-Merahbi et al., 2016). Briefly, mice were kept in separate metabolic cages with unlimited access to water and to the specified diet. After 48 hours of acclimation, data was collected every 10 min including photobeam breaks, oxygen consumption, carbon dioxide dissipation, and food and water consumption. Results in bars represent the average of each night/day cycle.
A glucose tolerance test (GTT) was performed after overnight fasting. Mice blood glucose was assessed before and 15, 30, 60, 90, and 120 minutes after intraperitoneal injection of glucose (2 g/kg). For the Insulin tolerance test (ITT), the same measurements were performed after 4 hours of fasting and intraperitoneal injection of 0.5 U/kg of recombinant insulin. For glucose measurements, one blood drop was drawn from the tail tip into a test strip and measured with a glucometer (Accu-Chek® Roche).
Lipids tolerance test was performed as described previously (Wang, Rong et al., 2016b). Briefly, overnight fasted mice were gavaged with olive oil (10 μL/g body weight). Blood was collected at indicated times for measurement of serum triglycerides content. For lipids absorption under tyloxapol treatment, 250 μg/g of body weight were i.p. injected to mice 30 minutes before the gavage of olive oil 5 μL/g body weight.
Liver triglycerides were measured by homogenization of 50 mg of liver in 500 uL of lysis buffer and lipids extraction in methanol:chloroform, phase extraction and evaporation. The lipids were redissolved in DMSO and triglycerides quantified with the mentioned kit and according to the manufacturers' instructions.
The bedding of single-caged mice was collected and the ingested food ingestion from the individual mice was assessed. All the stools were manually collected. After overnight dissecation at 60° C., the samples were weighted and frozen for further analysis. The amount of feces produced per mouse was compared to the amount of food consumed and the weight gain. About 3 g of dried feces material were homogenized and 1 g was pressed into a tablet and accurately weighted. Calorie content from feces and diet was measured in duplicates in a 6400 Automatic Isoperibol calorimeter (Parr Instrument Company). To analyze energy excreted, the amount of energy in feces was compared to the amount of energy ingested (the product between grams of food and caloric content of the food). Lipids extraction from feces was performed as previously described (Kraus, Yang et al., 2015).
Proteins from tissues and cell culture were extracted with RIPA buffer supplemented with phosphatase and protease inhibitor (PPI, Thermo Fisher Scientific). Protein concentration was measured by Pierce™ BCA Protein Assay Kit (Thermo Fisher Scientific) following the manufacturer's protocol. Reduced protein extracts were separated on 10% SDS-PAGE gels by electrophoresis and transferred to PVDF membranes under wet transfer. Membranes were blocked in 5% (w/v) milk in TBS-T before overnight probing with indicated primary antibodies at 4° C., followed by TBS-T washes and incubation with corresponding secondary antibody.

lipid transport through the Caco2 monolayer (Caco2 cells) | SMILES | course of atherosclerosis (LDLR-deficient mice) | obesity induced by a high-fat diet (summary statement) (male C57BL/6 mice on HFD)
significant reduction in lipid transport | CC(C)(C)n1nc(Cc2cccc3ccccc23)c2c(N)ncnc21 [1-NM-PP1, 1-(tert-butyl)-3-(nafthalen-1-ylmethyl)-1H-pirazol[3,4-d]pyrimidine-4-amine] | – | –
– | CC(C)c1c(C(=O)Nc2ccccc2)c(-c2ccccc2)c(-c2ccc(F)cc2)n1CC[C@@H](O)C[C@@H](O)CC(=O)O [Atorvastatin] | efficiently attenuating the course of atherosclerosis | –
significant reduction in lipid transport | O=C(Nc1ccc(CN2CCOCC2)cc1)c1ccc(-c2cccc(Cl)c2)o1 [CID2011756] | – | –

SMILES | lipid transport through the Caco2 monolayer (Caco2 cells) | course of atherosclerosis (LDLR-deficient mice) | obesity induced by a high-fat diet (summary statement) (male C57BL/6 mice on HFD)
O=C1NCCCc2c1oc1ccc(O)cc21 [CID755673] | significant reduction in lipid transport | – | significantly reduces obesity induced by a high-fat diet
